Test results from article PMC11483813, “Bombesin-Targeted Delivery of β-Carboline-Based Ir(III) and Ru(II) Photosensitizers for a Selective Photodynamic Therapy of Prostate Cancer” (Inorganic Chemistry, 2024).

Key:
PC-3 cells [1] = experiment: Cellular internalization by ICP-MS; format: cell-based, human; settings: 5 μM, 4 h
Description: Figure 10 Cellular internalization. PC-3 cells were incubated for 4 h with the indicated compounds at 5 μM, and the Ir (A) or Ru (B) content per 1 × 10^6 cells was quantified by ICP-MS. Bars represent the mean value of three replicates ± SD. * p < 0.05; *** p < 0.001 versus Ir-H or Ru-H.
The intracellular accumulation of the PSs is a crucial requirement to achieve a photocytotoxic effect. This is because the ROS generated by the PSs have a very limited radius of action and only operate in the cellular compartment or organelle in which they are generated.[57] […] This further emphasizes the importance of cellular uptake for their cytotoxic activity. Additionally, when using tumor-targeting ligands, such as BN3, the intracellular uptake of the metallopeptides depends on the level of expression of the target receptor on the cell surface and the internalization mechanism, which may differ from that of the free complex. Therefore, the internalization of complexes Ir-H, Ir-Me, Ru-H, and Ru-Me and of metallopeptides Ir-BN and Ru-BN in PC-3 cells was determined by quantifying the intracellular metal content by inductively coupled plasma mass spectrometry (ICP-MS) (Figure 10). After 4 h treatment with the compounds at 5 μM, the amount of Ir in cells exposed to Ir-H was 3.1 ± 0.7 ng per million cells, whereas in the case of its conjugated form Ir-BN, it increased 5.7-fold to 17.9 ± 5.6 ng per million cells. […]
PC-3 cells were seeded in 6-well plates at a density of 2 million cells/well. […] The number of cells in each sample was determined using a Novocyte flow cytometer (Agilent Technologies). The samples were centrifuged to obtain the cell pellet, and the complex content was subsequently assessed using inductively coupled plasma mass spectrometry (ICP-MS). […] The Ir or Ru content was analyzed in Agilent 7500c ICP-MS located at the Technical Research Services of the University of Girona. […] The isotopes detected were ^193Ir, ^101Ru, and ^103Rh, respectively. […] Three independent samples were analyzed for each complex.

[2] = pKa determination from emission intensity versus pH; format: physicochemical; settings: H2O:DMSO (99:1), 10^–5 M, 25 °C
Excerpt: Ir-H and Ru-H are susceptible to deprotonation in aqueous media due to the presence of the acidic −COOH group. In fact, the actual protonation state of these complexes at the different physiological pH values defines their global charge and correspondingly influences their solubility, their photophysical properties, and their cellular uptake.[45]−[47] Thus, the pKa values of Ir-H and Ru-H in their excited states were experimentally determined by monitoring the variations of their emission intensity at specific wavelengths versus different pH values and fitting the data (Iem,λ/pH) to a sigmoidal equation. In good agreement with similar complexes reported in the literature,[45],[46] there was a gradual decrease in the emission intensity of Ir-H and Ru-H with decreasing pH (Figures 4 and S50). […] These values can be considered as an acceptable approximation to the values of the respective ground states. Therefore, we concluded that Ir-H and Ru-H adopt their deprotonated zwitterionic forms in the whole range of physiological pHs. This means that Ir-H assumes a zwitterionic neutral form, while Ru-H adopts a zwitterionic monocationic structure. In both cases, there is charge separation, and as a result, we predict that the cellular uptake ability of these complexes could be reduced, in comparison to that of their relatives Ir-Me and Ru-Me.
Figure 4 pKa determination. […]

PC-3 cells [3] = experiment: Apoptosis assay, annexin V/propidium iodide; format: cell-based, human; settings: five times IC50,light, photoactivated, 24 h
Description: Mitochondria play an important role in the regulation of apoptosis. Alterations in the MMP can cause the release of apoptotic factors, such as cytochrome c, which activates the caspase cascade, leading to programmed cell death.[66],[67] In order to elucidate whether the toxic effect of the compounds at the mitochondrial level triggers cell death by apoptosis, a dual annexin V/propidium iodide labeling experiment was performed. The initial stages of apoptosis are characterized by alterations in the symmetry of phospholipids in the cytoplasmic membrane, which can be detected using annexin V (An). The late stages also include disruption of the cell membrane, permitting the penetration of propidium iodide (PrI), which emits red fluorescence when bound to DNA. […]
Figure 13 Cell death mechanism. […] After 24 h, the percentage of viable, necrotic, early apoptotic, and late apoptotic cells was analyzed by flow cytometry using propidium iodide and annexin V staining. […]
PC-3 cells were seeded into 12-well plates at a density of 100000 cells/well. […] The samples were immediately analyzed using a Novocyte flow cytometer. Annexin-FITC staining was detected at a wavelength of 520 nm, and propidium iodide was detected at 617 nm. The fluorescence emission of 10000 cells per sample was measured, and the percentages of live, early apoptotic, late apoptotic, and necrotic cell populations were determined.

| intracellular Ru content (PC-3 cells [1]) | pKa (excited state) [2] | amount of Ir in cells (PC-3 cells [1]) | SMILES | cells in early apoptosis (PC-3 cells [3]) | cells in late apoptosis (PC-3 cells [3]) |
| --- | --- | --- | --- | --- | --- |
| 0.329 ng per million cells | 4.51 | – | Cn1c2ccccc2c2ccnc(-c3ccc(/C=C/C(=O)O)cn3)c21.[Cl-].[Cl-].[Ru+2].c1ccc(-c2ccccn2)nc1.c1ccc(-c2ccccn2)nc1 [Ru-H] | – | – |
| – | – | 266.4 ± 13.9 ng per million cells | COC(=O)/C=C/c1ccc(-c2nccc3c4ccccc4n(C)c23)nc1.[Cl-].[Ir+3].[c-]1ccccc1-c1ccccn1.[c-]1ccccc1-c1ccccn1 [Ir-Me] | 11.9% | 41.7% |
| – | 3.81 | 3.1 ± 0.7 ng per million cells | Cn1c2ccccc2c2ccnc(-c3ccc(/C=C/C(=O)O)cn3)c21.[Cl-].[Ir+3].[c-]1ccccc1-c1ccccn1.[c-]1ccccc1-c1ccccn1 [Ir-H] | – | – |
